Test results published in PMC4853610, “Systemic Dosing of Thymosin Beta 4 before and after Ischemia Does Not Attenuate Global Myocardial Ischemia-Reperfusion Injury in Pigs” (Frontiers in Pharmacology, 2016).

Legend:
[1] = statement in discussion; ref Cierniewski et al., 2012; cited from earlier work
Excerpt: Thymosin beta 4 is normally found in the cytosol and also in the nucleus of cells but lacks a signal sequence for exocytosis. It is unclear whether the high concentrations found in extracellular fluids, is due to active secretion of the peptide or secondary to degranulation of inflammatory cells or cell membrane rupture ([Watts et al., 1990]; [Huff et al., 2001]). TB4 is water soluble and rapidly internalized by endothelial cells in vitro where it binds to actin and participates in the dynamics of the cytoskeleton ([Cierniewski et al., 2012]). At very high concentrations there is also some bin ...

[2] = Completion of the 30 h follow-up period; type: in vivo, pig; settings: TB4 treatment group n = 6; one died after weaning from CPB (bradycardia), one 20 h after reperfusion (circulatory failure)
Excerpt: Ten landrace pigs weighing 29–43 kg were operated on and divided into a TB4 treatment group (n = 6) and a control group (n = 4). All animal experiments were approved by the Laboratory Animal Care & Use Committee of the State Provincial Office of Southern Finland.
(§1) The lung was displaced and the pericardium opened. […] Blood lactate levels were monitored to ensure adequate perfusion. […] After weaning, the animals were decannulated. […] The thoracotomy wound was closed in three layers.

citrated whole blood = assay: Rotem thromboelastometry in vitro (EXTEM, INTEM, FIBTEM); design: species or system pig; settings: for maximum clot firmness, FIBTEM: 1 h room temperature, platelets inhibited, three animals, mean ± SD
Description: Rotem®thromboelastometry (Tem Innovations GmbH, Basel, Switzerland) analysis was performed in vitro on blood samples from three blood-donor animals. TB4 was added to citrated whole blood to achieve two different concentrations (0.1 mM and 1 mM) and incubated at room temperature for 1 h. Untreated blood samples served as controls. The samples were analyzed and three parameters were drawn from the results at 60 min: Maximum clot firmness (stability of the blood clot), clotting time (time to clot formation), and maximum lysis of the blood clot. Assays used were EXTEM, INTEM, and FIBTEM. EXTEM measures the activity of the extrinsic pathway with tissue factor activation and INTEM of the intrinsic pathway with contact activation. FIBTEM is used for the assessment of fibrinogen status by complete platelet inhibition.

coronary arteries = assay: Artery wire myography, coronary arteries; design: species or system pig
Excerpt: (§2) Eighteen representative segments of small mesentery arteries and coronary arteries (250–350 μm in diameter) from 4 blood-donor pigs were studied by wire myography for contractile responses to TB4 in vitro. Samples were excised rapidly and placed in ice-cold oxygenated Krebs solution. The composition of the Krebs solution was as follows (in mM): 119 NaCl, 4.7 KCl, 25 NaHCO3, 1.2 NaH2PO4, 2.5 CaCl2, 1.2 MgSO4, and 5.5 glucose. Arterial rings (2 mm in length) were mounted using 40 μm wires in a microvessel myograph (Danish Myograph Technologies, Aarhus, Denmark) for isometric tension recordings. After mounting, vessels were equilibrated, normalized and contracted repeatedly with 62 mM potassium chloride until maximal and reproducible contractions were obtained. To examine the contracting effects of TB4, dose-response curves to TB4 (10-8-10-2 M) were constructed and compared to KCl-induced contraction. Relaxation was studied in thromboxane (TXA2) precontracted arterial rings. The precontraction was adjusted to 20–40% of the reference contraction to 62 mM KCl, which after cumulative concentrations of TB4 was added to the organ bath. To evaluate the role of NO on the effects of TB4 induced vasodilation, experiments were repeated in arteries incubated with L-NNA, a NO synthase inhibitor (100 μM, 30 min). Data were collected and analyzed using Powerlab and Chart5 softwares (ADI Instruments, Colorado Springs, CO, USA).

[3] = system: global myocardial ischemia-reperfusion injury; assay: Cardiac 15O-water PET, myocardial blood flow; type: in vivo; settings: pig; 25 h post-reperfusion; n = 4; mean ± SD; p = 0.86 vs control
Description: as §1
The pigs underwent cardiac PET scans 25–26 h post-reperfusion to determine MBF during rest and adenosine stress. PET studies were performed with ECAT EXACT HR+ scanner (Siemens-CTI, Knoxville, TN, USA). Myocardial perfusion was evaluated by PET with ^15O-radiolabeled water (808 ± 129 MBq) both at rest and during intravenous adenosine stress (200 μg/kg/min). The acquisition frames were as follows: 14 × 5 s, 3 × 10 s, 3 × 20 s, and 4 × 30 s (total duration 4 min 40 s). The acquired PET data were reconstructed in 2D mode with an iterative reconstruction algorithm OSEM using six iteration and 16 subsets in the reconstruction. The transaxial field of view (35 cm) was reconstructed in a 128 × 128 matrix, yielding a pixel size of 2.57 mm × 2.57 mm. The measurements were corrected for scatter, random counts, and dead time. The device produces 63 axial planes with a slice thickness of 2.43 mm. Global myocardial perfusion (ml/g/min) was measured using Carimas 2 software (Turku PET Centre, Turku, Finland^1).

[4] = system: global myocardial ischemia-reperfusion injury; type: in vivo, pig
Description: The lung was displaced and the pericardium opened. […] Blood lactate levels were monitored to ensure adequate perfusion. […] After weaning, the animals were decannulated. […] The thoracotomy wound was closed in three layers. […] MRI study was performed at 1.5 T system (Philips GyroscanIntera Nova Dual MR, Philips Medical Systems, Best, The Netherlands) with a phased-array torso coil and a vector cardiographic method for ECG-gating. All acquisitions were obtained during short breath hold periods. Each MRI study consisted of cine imaging of both ventricles for volumetrics and wall motion at rest. Late enhancement (LE) imaging was applied for scar assessment. […] A phase-sensitive inversion recovery T1-TFE pulse sequence was applied for LE imaging 10 min after injecting gadoterate meglumine (Dotarem 279.3 mg/mL, Guerbet, Roissy CdG, France) with a dose 0.3 mmol/kg. The following imaging parameters were used: prospective gating, TR/TE 4.0/1.2 ms, flip angle 15°, acquisition matrix 168 × 256, reconstruction matrix 256 × 256, FOV 320-360 mm, rFOV 100%, 8-15 slices/breath hold, slice thickness 6 mm, and gap 0 mm. TI was optimized individually using a TI-scout sequence. The whole LV was covered by LE images at SA orientation.

[5] = system: global myocardial ischemia-reperfusion injury; settings: pig, TB4 6 mg/kg i.v. twice, n = 4, mean ± SD
Description: The pigs were pre-anesthetized with an intramuscular injection of 100 mg xylazin (Rompun vet, Bayer Animal Health GmbH, Leverkusen, Germany) and 25 mg midazolam (Midazolam Hameln, Hameln pharmaceuticals GmbH, Hameln, Germany). A peripheral ear vein was cannulated and the animals were medicated with 20 mg boluses of propofol (PropofolLipuro, B. Braun Melsungen AG, Melsungen, Germany) and 150 μg phentanyl (Fentanyl-Hameln, Hameln pharmaceuticals GmbH, Hameln, Germany) and were then intubated and connected to a respirator (Dräger Oxylog 3000, Drägerwerk AG, Lübeck, Germany). The respiratory rate was set to 18–22 times/min with a tidal volume of 8–10 ml/kg using 40% oxygen. Blood gases were monitored to ensure adequate ventilation (i-STAT, Abbott Laboratories, Abbott Park, IL, USA). Anesthesia was maintained with a continuous infusion of propofol 15–30 mg/kg/h, phentanyl 1.5 μg/kg/h and midazolam 100 μg/kg/h. Preoperatively and every 8 h thereafter the animals received antibiotic prophylaxis (Cefuroxime 750 mg, Orion Pharma, Espoo, Finland). Before the heart was cannulated 10000 IU of heparin (Heparin, LEO Pharma, Ballerup, Denmark) was given as a bolus and the dose was repeated every 30 min during extracorporeal circulation. […]
The pigs were placed in a left lateral decubitus position and the chest was shaved and disinfected. […] Blood lactate levels were monitored to ensure adequate perfusion. […]

small mesentery arteries = assay: Artery wire myography, small mesentery arteries; design: species or system pig
Excerpt: as §2

[6] = after intraperitoneal administration; ref Mora et al., 1997; cited from earlier work
Description: The preferred dosing range of TB4 seems to be 2–12 mg/kg both when using single and repeated strategies. […] We wanted to condition the heart before the operation and also affect the immediate post-operative reperfusion period and gave the animals two doses of TB4. Under physiological conditions, concentrations of the peptide in plasma and se ...

[7] = Serum TB4 concentration by EIA after intravenous infusion; settings: pig, 6 mg/kg
Description: The pigs were pre-anesthetized with an intramuscular injection of 100 mg xylazin (Rompun vet, Bayer Animal Health GmbH, Leverkusen, Germany) and 25 mg midazolam (Midazolam Hameln, Hameln pharmaceuticals GmbH, Hameln, Germany). A peripheral ear vein was cannulated and the animals were medicated with 20 mg boluses of propofol (PropofolLipuro, B. Braun Melsungen AG, Melsungen, Germany) and 150 μg phentanyl (Fentanyl-Hameln, Hameln pharmaceuticals GmbH, Hameln, Germany) and were then intubated and connected to a respirator (Dräger Oxylog 3000, Drägerwerk AG, Lübeck, Germany). […] Anesthesia was maintained with a continuous infusion of propofol 15–30 mg/kg/h, phentanyl 1.5 μg/kg/h and midazolam 100 μg/kg/h. […] TB4 (supplied by RegeneRx Biopharmaceuticals Inc, Rockville, MD, USA) was suspended in sterile water to a concentration of 4 mg/ml (0.82 mM) and administered 6 mg/kg through a 15 min intravenous infusion 30 min before the start of the operation and 6 h later.
Serial serum samples were collected from two animals in both groups for pharmacokinetic studies of TB4 by EIA. The serum was prepared and analyzed as parallel samples according to the manufacturers’ manual (Thymosin β4 EIA Kit, Immundiagnostik AG, Bensheim, Germany). A coefficient of variation (calculated as: sample SD/sample mean) of less than 50% between parallel samples was accepted for final analysis.

[8] = system: global myocardial ischemia-reperfusion injury; assay: Cardiomyocyte apoptosis by TUNEL after CPB and aortic cross-clamping; type: in vivo; settings: pig; TB4 6 mg/kg i.v. twice; 30 h post-reperfusion; mean ± SD; p = 0.20 vs other group
Description: as §1
Transmural tissue samples from the left and right ventricles were collected and fixed in formalin. Hematoxylin and eosin staining was performed for general histological analysis. Cardiomyocyte apoptosis was determined by terminal transferase nick end-labeling assay (TUNEL) as previously described ([Gavrieli et al., 1992]; [Saraste et al., 1997]). Positive apoptotic nuclei were counted over an ocular grid and presented as a percentage of total cardiomyocyte number in 10 randomly selected microscopic visual high power (×40) fields by an investigator blinded to group assignments.

[9] = TB4 0.1 mM and 1 mM in whole blood

For `CC[C@H](C)[C@H](NC(=O)[C@H](CCC(=O)O)NC(=O)[C@H](C)NC(=O)[C@H](CCSC)NC(=O)[C@H](CC(=O)O)NC(=O)[C@@H]1CCCN1C(=O)[C@H](CCCCN)NC(=O)[C@H](CC(=O)O)NC(=O)[C@H](CO)NC(C)=O)C(=O)N[C@@H](CCC(=O)O)C(=O)N[C@@H](CCCCN)C(=O)N[C@@H](Cc1ccccc1)C(=O)N[C@@H](CC(=O)O)C(=O)N[C@@H](CCCCN)C(=O)N[C@@H](CO)C(=O)N[C@@H](CCCCN)C(=O)N[C@@H](CC(C)C)C(=O)N[C@@H](CCCCN)C(=O)N[C@@H](CCCCN)C(=O)N[C@H](C(=O)N[C@@H](CCC(=O)O)C(=O)N[C@H](C(=O)N[C@@H](CCC(N)=O)C(=O)N[C@@H](CCC(=O)O)C(=O)N[C@@H](CCCCN)C(=O)N[C@@H](CC(N)=O)C(=O)N1CCC[C@H]1C(=O)N[C@@H](CC(C)C)C(=O)N1CCC[C@H]1C(=O)N[C@@H](CO)C(=O)N[C@@H](CCCCN)C(=O)N[C@@H](CCC(=O)O)C(=O)N[C@H](C(=O)N[C@H](C(=O)N[C@@H](CCC(=O)O)C(=O)N[C@@H](CCC(N)=O)C(=O)N[C@@H](CCC(=O)O)C(=O)N[C@@H](CCCCN)C(=O)N[C@@H](CCC(N)=O)C(=O)N[C@@H](C)C(=O)NCC(=O)N[C@@H](CCC(=O)O)C(=O)N[C@@H](CO)C(=O)O)[C@@H](C)CC)[C@@H](C)O)[C@@H](C)O)[C@@H](C)O` [TB4, Thymosin beta 4], the solubility in water [1] is listed as “water soluble”, the “animals not completing the follow-up period” value [2] is listed as “two animals did not complete the follow-up period” and the blood clotting time (citrated whole blood; [9]) is listed as “did not have an effect”. For the same compound, the “maximal blood clot fibrinolysis” value (citrated whole blood; [9]) was “did not have an effect”, the “maximum clot firmness, FIBTEM” value (citrated whole blood; TB4 0.1 mM in citrated whole blood) was 37.3 ± 5.9 mm and the “maximum clot firmness, FIBTEM” value (citrated whole blood; TB4 1 mM in citrated whole blood) was 27.7 ± 4.2 mm. The “relaxation of coronary arteries” value (coronary arteries; TXA2 precontracted porcine coronary rings, TB4 alone) was “modest endothelium-dependent relaxation”, the “relaxation of coronary arteries with nitric oxide synthase inhibitor” value (coronary arteries; arteries incubated with L-NNA 100 μM, 30 min) was “abolished” and the “vasoconstriction in coronary arteries” value (coronary arteries; dose-response to TB4 compared to KCl-induced contraction) was “nor did it induce vasoconstriction”. For the same compound, the “global myocardial blood flow during rest” value [3] was 1.92 ± 0.38 mL/g/min, the “gadolinium contrast uptake on late-enhancement scans” value ([4]; 28 h post-reperfusion, any of the animals) was “No uptake of gadolinium contrast was observed” and the “valvular abnormalities on cardiac MRI” value ([4]; pig, in vivo) was “One animal in the TB4 group had mild tricuspid valve regurgitation”. For the same compound, the “left ventricle ejection fraction” value ([4]; pig, 28 h post-reperfusion, n = 4, mean ± SD, p = 0.45 vs control) was 61.9 ± 10.6%, the LVESV ([4]; pig, 28 h post-reperfusion, n = 4, mean ± SD, p = 0.49) was 23.3 ± 8.7 mL and the LVEDV ([4]; pig, 28 h post-reperfusion, n = 4, mean ± SD, p = 0.58) was 60.1 ± 6.8 mL. For the same compound, the “cTnT plasma concentration 6 h post-reperfusion” value ([5]; p = 0.27) was 437 ± 291 ng/L, the “cTnT plasma concentration 24 h post-reperfusion” value ([5]; p = 0.55) was 305 ± 75 ng/L and the “vasodilatation in mesenteric arteries” value (small mesentery arteries; TXA2 precontracted arterial rings, cumulative TB4 concentrations) was “did not, however, induce vasodilatation”. For the same compound, the “contractile response, % of maximum potassium chloride stimulation” value (small mesentery arteries; mesenteric arteries, TB4 0.1–1 mM, reference 62 mM KCl, arteries from four animals) was 15–30%, the “influence on vasoconstriction or vasodilation at physiological concentrations” value (small mesentery arteries; physiological concentrations of TB4, mesentery and coronary arteries) was “did not observe any influence” and the “time of maximal tissue concentration in heart” value [6] was 2 h. The level at time molar at 0.25 h [7] was 960 nM, the level at time molar at 1 h [7] was 1250 nM and the “TUNEL-positive apoptotic cells, right ventricle” value [8] was 0.94 ± 0.33%.
